Source: patent US12180187B2, “1-phenyl-5-azinylpyrazolyl-3-oxyalkyl acids and their use for controlling unwanted plant growth” (BAYER AKTIENGESELLSCHAFT, priority 2019, dated 2024)

Columns and labels:
ALOMY [1] = experiment: Post-emergence action against ALOMY, 1.28 kg/ha; format: in vivo, Alopecurus myosuroides; details: dosage 1280 g/ha, visual rating about 3 weeks after treatment vs untreated controls
How it was run: (§1)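 Foliar application at the one-leaf stage: compound as WP or EC in water with 0.5% additive, sprayed at 600 L/ha. Plants are kept about 3 weeks in the greenhouse, then % herbicidal action is estimated visually (100% = death).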

DIGSA [2] = experiment: Post-emergence action against DIGSA, 1.28 kg/ha; format: in vivo, Digitaria sanguinalis; details: dosage 1280 g/ha, visual rating about 3 weeks after treatment vs untreated controls
How it was run: as §1

ECHCG [3] = experiment: Post-emergence action against ECHCG, 1.28 kg/ha; format: in vivo, Echinochloa crus-galli; details: dosage 1280 g/ha, visual rating about 3 weeks after treatment vs untreated controls
Protocol: (§2) • a) Seeds of mono- and dicotyledonous weed plants are placed in plastic pots in sandy loam soil (twin sowing with one species each of mono- or dicotyledonous weed plants per pot), covered with soil and cultivated in a greenhouse under controlled growth conditions. 2 to 3 weeks after sowing, the test plants are treated at the one-leaf stage. The compounds of the invention, formulated in the form of wettable powders (WP) or as emulsion concentrates (EC), are applied to the green parts of the plants as aqueous suspension or emulsion with addition of 0.5% additive at a water application rate equivalent to 600 litres per hectare. After the test plants have been kept in the greenhouse under optimum growth conditions for about 3 weeks, the activity of the preparations is rated visually in comparison to untreated controls. For example, 100% activity=the plants have died, 0% activity=like control plants. As shown by the results, compounds of the general formula (I) of the invention, in post-emergence treatment, have very good herbicidal efficacy (90% to 100% herbicidal action) against harmful plants such as Abutilon theophrasti, Digitaria sanguinalis, Echinochloa crus-galli, Matricaria inodora, Poa annua, at an application rate of 1.28 kg of active substance per hectare.

ABUTH = experiment: Post-emergence action against ABUTH, 1.28 kg/ha; format: in vivo, Abutilon theophrasti; details: dosage 1280 g/ha, visual rating about 3 weeks after treatment vs untreated controls (100% = plants died)
Protocol: as §2

STEME [4] = experiment: Post-emergence action against STEME, 1.28 kg/ha; format: in vivo, Stellaria media; details: dosage 1280 g/ha, visual rating about 3 weeks after treatment vs untreated controls (100% = plants died)
How it was run: as §1

VERPE [5] = experiment: Post-emergence action against VERPE, 1.28 kg/ha; format: in vivo, Veronica persica; details: dosage 1280 g/ha, visual rating about 3 weeks after treatment vs untreated controls (100% = plants died)
How it was run: as §1

DIGSA [6] = experiment: Pre-emergence action against DIGSA, 1280 g/ha; format: in vivo, Digitaria sanguinalis; details: visual scoring after about 3 weeks vs untreated controls, 100% = plants have died, 0% = like control plants
How it was run: (§3)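 Percent herbicidal effect, judged by eye relative to untreated pots around 3 weeks after soil-surface treatment. Application: formulated compound in water, 600 L/ha, 0.5% additive, on soil over sown seeds; greenhouse.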

LOLRI [7] = experiment: Pre-emergence action against LOLRI, 1280 g/ha; format: in vivo, Lolium rigidum; details: visual scoring after about 3 weeks vs untreated controls, 100% = plants have died, 0% = like control plants
How it was run: as §3

VERPE [8] = experiment: Pre-emergence action against VERPE, 1280 g/ha; format: in vivo, Veronica persica; details: scored visually after about 3 weeks vs untreated controls (100% = plants have died)
How it was run: as §3

MATIN [9] = experiment: Post-emergence action against MATIN, 1.28 kg/ha; format: in vivo, Tripleurospermum inodorum (Matricaria inodora); details: dosage 1280 g/ha, visual rating about 3 weeks after treatment vs untreated controls (100% = plants died)
How it was run: as §1

MATIN [10] = experiment: Pre-emergence action against MATIN, 1280 g/ha; format: in vivo, Tripleurospermum inodorum (Matricaria inodora); details: scored visually after about 3 weeks vs untreated controls (100% = plants have died)
How it was run: as §3

LOLRI [11] = experiment: Post-emergence action against LOLRI, 1.28 kg/ha; format: in vivo, Lolium rigidum; details: dosage 1280 g/ha, visual rating about 3 weeks after treatment vs untreated controls
Protocol: as §2

POAAN [12] = experiment: Pre-emergence action against POAAN, 1280 g/ha; format: in vivo, Poa annua; details: visual scoring after about 3 weeks vs untreated controls, 100% = plants have died, 0% = like control plants
How it was run: as §3

SETVI [13] = experiment: Pre-emergence action against SETVI, 1280 g/ha; format: in vivo, Setaria viridis; details: visual scoring after about 3 weeks vs untreated controls, 100% = plants have died, 0% = like control plants
How it was run: as §3

AMARE [14] = experiment: Post-emergence action against AMARE, 1.28 kg/ha; format: in vivo, Amaranthus retroflexus; details: dosage 1280 g/ha, visual rating about 3 weeks after treatment vs untreated controls (100% = plants died)
How it was run: as §1

POAAN [15] = experiment: Post-emergence action against POAAN, 1.28 kg/ha; format: in vivo, Poa annua; details: dosage 1280 g/ha, visual rating about 3 weeks after treatment vs untreated controls
How it was run: as §1

STEME [16] = experiment: Pre-emergence action against STEME, 1280 g/ha; format: in vivo, Stellaria media; details: scored visually after about 3 weeks vs untreated controls (100% = plants have died)
How it was run: as §3

AMARE [17] = experiment: Pre-emergence action against AMARE, 1280 g/ha; format: in vivo, Amaranthus retroflexus; details: scored visually after about 3 weeks vs untreated controls (100% = plants have died)
How it was run: as §3

ECHCG [18] = experiment: Pre-emergence action against ECHCG, 1280 g/ha; format: in vivo, Echinochloa crus-galli; details: visual scoring after about 3 weeks vs untreated controls, 100% = plants have died, 0% = like control plants
How it was run: as §3

ALOMY [19] = experiment: Pre-emergence action against ALOMY, 1280 g/ha; format: in vivo, Alopecurus myosuroides; details: visual scoring after about 3 weeks vs untreated controls, 100% = plants have died, 0% = like control plants
How it was run: as §3

SETVI [20] = experiment: Post-emergence action against SETVI, 1.28 kg/ha; format: in vivo, Setaria viridis; details: dosage 1280 g/ha, visual rating about 3 weeks after treatment vs untreated controls
Protocol: as §2

DIGSA [21] = experiment: Pre-emergence action at 320 g/ha against DIGSA; format: in vivo, Digitaria sanguinalis; details: visual scoring after about 3 weeks vs untreated controls
Excerpt: (§4) b) Seeds of monocotyledonous and dicotyledonous weed plants and crop plants are placed in plastic or organic planting pots and covered with soil. The compounds of the invention, formulated in the form of wettable powders (WP) or as emulsion concentrates (EC), are then applied onto the surface of the covering soil as aqueous suspension or emulsion with addition of 0.5% additive at a water application rate of 600 l/ha (converted). After the treatment, the pots are placed in a greenhouse and kept under good growth conditions for the trial plants. After about 3 weeks, the effect of the preparations is scored visually in comparison with untreated controls as percentages. For example, 100% activity=the plants have died, 0% activity=like control plants. Tables 13 to 26 below show the effects of selected compounds of the general formula (I) on various harmful plants and at an application rate corresponding to 320 g/ha, which were obtained by the experimental procedure mentioned above.

AVEFA = experiment: Pre-emergence action at 320 g/ha against AVEFA; format: in vivo; details: visual scoring after about 3 weeks vs untreated controls
Excerpt: as §4

LOLRI [22] = experiment: Pre-emergence action at 320 g/ha against LOLRI; format: in vivo, Lolium rigidum; details: visual scoring after about 3 weeks vs untreated controls
Excerpt: as §4

MATIN [23] = experiment: Pre-emergence action at 320 g/ha against MATIN; format: in vivo, Tripleurospermum inodorum (Matricaria inodora); details: visual scoring after about 3 weeks vs untreated controls
Excerpt: as §4

ALOMY [24] = experiment: Pre-emergence action at 320 g/ha against ALOMY; format: in vivo, Alopecurus myosuroides; details: scored visually after about 3 weeks vs untreated controls (100% = plants have died)
Excerpt: as §4

VERPE [25] = experiment: Pre-emergence action at 320 g/ha against VERPE; format: in vivo, Veronica persica; details: visual scoring after about 3 weeks vs untreated controls
Excerpt: as §4

SETVI [26] = experiment: Pre-emergence action at 320 g/ha against SETVI; format: in vivo, Setaria viridis; details: visual scoring after about 3 weeks vs untreated controls
Excerpt: as §4

VIOTR = experiment: Pre-emergence action at 320 g/ha against VIOTR; format: in vivo, Viola tricolor; details: dosage 320 g/ha
Excerpt: as §4

AMARE [27] = experiment: Pre-emergence action at 320 g/ha against AMARE; format: in vivo, Amaranthus retroflexus; details: visual scoring after about 3 weeks vs untreated controls
Excerpt: as §4

POLCO = experiment: Pre-emergence action at 320 g/ha against POLCO; format: in vivo, Fallopia convolvulus (Polygonum convolvulus); details: visual scoring after about 3 weeks vs untreated controls
Excerpt: as §4

Row | SMILES | Post-emergence action against ALOMY (ALOMY [1]) [%] | Post-emergence action against DIGSA (DIGSA [2]) [%] | Post-emergence action against ECHCG (ECHCG [3]) [%] | Post-emergence action against ABUTH (ABUTH) [%] | Post-emergence action against STEME (STEME [4]) [%] | Post-emergence action against VERPE (VERPE [5]) [%] | Pre-emergence action against DIGSA (DIGSA [6]) [%] | Pre-emergence action against LOLRI (LOLRI [7]) [%] | Pre-emergence action against VERPE (VERPE [8]) [%] | Post-emergence action against MATIN (MATIN [9]) [%] | Pre-emergence action against MATIN (MATIN [10]) [%] | Post-emergence action against LOLRI (LOLRI [11]) [%] | Pre-emergence action against POAAN (POAAN [12]) [%] | Pre-emergence action against SETVI (SETVI [13]) [%] | Post-emergence action against AMARE (AMARE [14]) [%] | Post-emergence action against POAAN (POAAN [15]) [%] | Pre-emergence action against STEME (STEME [16]) [%] | Pre-emergence action against AMARE (AMARE [17]) [%] | Pre-emergence action against ECHCG (ECHCG [18]) [%] | Pre-emergence action against ALOMY (ALOMY [19]) [%] | also measured
1 | O=C(COc1nn(-c2ccccc2F)c(-c2ccc(F)nc2)c1C(F)(F)F)NS(=O)(=O)CC(F)(F)F [Example X-006] | 100 | 90 | 100 | 90 | 100 | 90 | 100 | 100 | 100 | 100 | 100 | 90 | 100 | 100 | 100 | 100 | 100 | 100 | 100 | – | –
2 | O=C(O)CNC(=O)COc1nn(-c2ccccc2F)c(-c2ccc(F)nc2)c1C(F)(F)F [Example X-026] | 100 | 100 | – | 90 | 100 | 90 | 100 | 100 | 100 | 100 | 100 | 90 | 100 | 100 | 90 | 100 | 100 | 100 | 100 | 100 | Post-emergence action against SETVI (SETVI [20]): 100%
3 | O=C(COc1nn(-c2ccccc2F)c(-c2cncnc2)c1Br)OCc1ccccc1 [VI-002] | – | – | 100 | 90 | 90 | 90 | – | 100 | 90 | 100 | 90 | 100 | 100 | 100 | 90 | 100 | 100 | 100 | 100 | – | Post-emergence action against SETVI (SETVI [20]): 90%
4 | Cc1ccc(-n2nc(OCC(=O)O)c(Br)c2-c2ccc(F)nc2)cc1 [VII-067] | – | 100 | 100 | – | – | – | 100 | 100 | 100 | 90 | 100 | 100 | 100 | 100 | 100 | 100 | 100 | 100 | 100 | 100 | –
5 | O=C(COc1nn(-c2ccccc2F)c(-c2ccc(F)nc2)c1Br)OCC1CCCO1 (centres unmarked) [VII-090] | – | 100 | 100 | – | – | 100 | 100 | 100 | 100 | 90 | 100 | 90 | 100 | 100 | – | 100 | 100 | 100 | 100 | 100 | –
6 | Cc1ccccc1-n1nc(OCC(=O)O)c(I)c1-c1ccc(F)nc1 [VII-097] | 100 | 100 | 100 | – | 90 | 100 | 100 | 100 | 100 | 90 | 90 | 90 | 100 | 100 | – | 100 | 100 | 100 | 100 | – | Post-emergence action against SETVI (SETVI [20]): 90%
7 | CCOC(=O)COc1nn(-c2ccccc2)c(-c2ccc(F)nc2)c1Br [VII-116] | – | – | – | – | – | – | – | – | – | – | – | – | – | – | – | – | – | – | – | – | Pre-emergence action against DIGSA in % (DIGSA [21]): 100%; Pre-emergence action against AVEFA in % (AVEFA): 90%; Pre-emergence action against LOLRI in % (LOLRI [22]): 100%; Pre-emergence action against MATIN in % (MATIN [23]): 90%; Pre-emergence action at 320 g/ha against ALOMY in % (ALOMY [24]): 100%; Pre-emergence action against VERPE in % (VERPE [25]): 100%; Pre-emergence action against SETVI in % (SETVI [26]): 100%; Pre-emergence action against VIOTR in % (VIOTR): 90%; Pre-emergence action against AMARE in % (AMARE [27]): 100%; Pre-emergence action against POLCO in % (POLCO): 90%
8 | COC(=O)C(C)Oc1nn(-c2ccccc2)c(-c2ccnc(F)c2)c1Cl (centres unmarked) [VIII-007] | – | 90 | 90 | 90 | 100 | 100 | 90 | 100 | 100 | 90 | 90 | 100 | 100 | 100 | 100 | 100 | 90 | 100 | 100 | – | –
